Here are results for one compound from US20100130549A1, “PSYCHOTROPIC COMPOUNDS, COMPOSITIONS AND METHODS OF USE” (priority 2007, published 2010).

Where only a bound is given, the exact number is not on record here.

The subject of data set [1] is BALB/c mice. Nature of the data set: Rotor rod test (motor activity). It counts as in vivo. Conditions: 10 mg/kg p.o., 90 min after administration; vs controls. The protocol: The test was performed 90 min after oral administration of the compounds. […] The rotor rod test involves placing the mouse on an elevated rotating bar. In this test, the mouse is placed on the bar such that it is facing the direction opposite to the rotation of the rod. The time lag to fall is determined.

The target of a further data set is Histamine H2 (Homo sapiens, UniProt P25021). Nature of the data set: Radioligand binding assay, Histamine H2. An excerpt:
(§1) . Table 1 provides data produced via a receptor binding assay and IC50 and Ki determination. […] In addition, the compound of formula (Ia) has a potent DAT inhibition, which is indicative of dopaminergic uptake inhibition and increased DA activity. In addition to the effect on SERT and DAT, the compound of formula (Ia) inhibited the transporter of Norepinephrine (NET), and several neurotransmitter's receptors like alpha2A and alpha2C receptors, alpha 1A and alphal C, 5HT2A and 5HT2C, signal histamine2 and dopamine D1. This specific profile is in line with the data on antidepressant, anxiolytic and moderate neuro-stimulation activity observed in the animal model studies.
(§2) With regard to the data provided in Table 1, the biochemical assay results are presented as the percent inhibition of specific binding or activity throughout the report. For primary assays, only the lowest concentration with a significant response judged by the assays’ criteria, is shown in this summary. […] Unless otherwise requested, primary screening in duplicate with quantitative data (e.g., IC50±SEM, Ki±SEM and nH) are shown.

For data set [2], the target named is Serotonin (5-Hydroxytryptamine) 5-HT2A (Homo sapiens, UniProt P28223). Description: Radioligand binding assay, 5-HT2A.
Chain of Serotonin (5-Hydroxytryptamine) 5-HT2A (P28223 whole entry): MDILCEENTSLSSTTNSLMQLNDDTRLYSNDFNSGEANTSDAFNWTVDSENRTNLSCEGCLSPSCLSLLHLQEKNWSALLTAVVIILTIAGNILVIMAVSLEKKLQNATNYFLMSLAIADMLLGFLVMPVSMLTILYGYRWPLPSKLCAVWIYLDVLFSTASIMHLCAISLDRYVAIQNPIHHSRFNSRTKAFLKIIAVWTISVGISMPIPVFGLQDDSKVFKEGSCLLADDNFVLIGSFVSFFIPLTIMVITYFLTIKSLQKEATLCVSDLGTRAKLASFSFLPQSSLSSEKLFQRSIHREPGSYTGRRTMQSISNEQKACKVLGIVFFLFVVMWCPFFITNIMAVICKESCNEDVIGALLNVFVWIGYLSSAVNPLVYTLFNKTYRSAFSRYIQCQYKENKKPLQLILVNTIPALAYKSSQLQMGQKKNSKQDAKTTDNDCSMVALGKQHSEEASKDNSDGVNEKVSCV
Description: as §1, §2

The test system of the next data set is ICR mice. Nature of the data set: Acute toxicity, oral administration. Format: in vivo. To be noted: for stimulation behavior (number of rearings): acute oral. On the procedure: FIG. 11B illustrates the effect of administering the compound of formula (Ia) on stimulation in ICR mice.
Acute toxicity was assessed in male BALB/c mice that had been orally administered the compound of formula (Ta). The compound of formula (Ia) was administered orally to mice at doses of 20, 25, 75, and 100 mg/kg (4 animals/group). Animals were followed for behavioral changes such as stimulation (number of rearings), and sedation, after 24, 48 and 72 hr. Body weight was determined up to 7 days after drug administration.

The test system of data set [3] is BALB/c mice. Description: Elevated plus maze. Conditions: 10 mg/kg (equimolar) ip 1 hr prior.
Description: The apparatus is made of wood and painted black, with two opposing open arms and two opposite enclosed arms of the same size. The arms are attached to a central square shaped in a plus sign. The whole apparatus is placed 50 cm above the floor. Anxious animals refrain from entry to the open arm and prefer the closed arm.
The data is presented as the mean±SEM of 12 animals.
The target of data set [4] is Trasnporter, Dopamine (DAT) (Homo sapiens, UniProt Q01959). Description: Radioligand binding assay, Dopamine transporter.
Chain of Trasnporter, Dopamine (DAT) (Q01959 whole entry): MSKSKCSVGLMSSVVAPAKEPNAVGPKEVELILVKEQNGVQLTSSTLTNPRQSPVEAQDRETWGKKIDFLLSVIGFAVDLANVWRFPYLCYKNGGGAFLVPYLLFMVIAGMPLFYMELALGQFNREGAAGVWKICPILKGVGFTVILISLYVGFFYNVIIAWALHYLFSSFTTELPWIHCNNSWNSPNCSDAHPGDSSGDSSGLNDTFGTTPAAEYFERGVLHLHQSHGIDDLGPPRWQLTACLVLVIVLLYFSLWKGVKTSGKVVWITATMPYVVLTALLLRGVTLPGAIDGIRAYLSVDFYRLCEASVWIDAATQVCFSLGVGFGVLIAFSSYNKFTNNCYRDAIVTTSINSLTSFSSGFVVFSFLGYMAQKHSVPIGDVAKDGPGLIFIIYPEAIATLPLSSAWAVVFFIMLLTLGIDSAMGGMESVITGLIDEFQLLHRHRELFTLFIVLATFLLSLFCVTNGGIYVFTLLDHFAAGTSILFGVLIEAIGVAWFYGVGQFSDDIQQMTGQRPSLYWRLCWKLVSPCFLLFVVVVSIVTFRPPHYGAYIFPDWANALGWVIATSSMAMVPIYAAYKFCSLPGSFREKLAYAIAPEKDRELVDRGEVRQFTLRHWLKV
Description: as §2

For orientation: IC50 means the point on the concentration scale where inhibition reaches its midpoint.

Chain of Histamine H2 (P25021 whole entry): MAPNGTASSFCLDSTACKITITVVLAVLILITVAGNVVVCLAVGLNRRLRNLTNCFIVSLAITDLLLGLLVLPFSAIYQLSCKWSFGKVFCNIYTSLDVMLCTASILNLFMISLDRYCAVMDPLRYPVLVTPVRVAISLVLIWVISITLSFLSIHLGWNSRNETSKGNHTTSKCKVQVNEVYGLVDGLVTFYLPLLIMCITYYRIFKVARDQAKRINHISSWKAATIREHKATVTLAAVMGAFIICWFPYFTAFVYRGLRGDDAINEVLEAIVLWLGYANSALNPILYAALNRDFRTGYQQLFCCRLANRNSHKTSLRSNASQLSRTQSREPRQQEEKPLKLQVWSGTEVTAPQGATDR

`CN[C@H]1CC[C@@H](c2ccc(Cl)c(Cl)c2)c2ccc(C#CCCCO)cc21` [compound Ia, (1S-cis)-4-(3,4-dichlorophenyl)-7-(5-hydroxy-1-pentyn-1-yl)-1,2,3,4-tetrahydro-N-methyl-1-naphthalenamine hydroiodide]: in the data set on BALB/c mice [1], the “muscle strength and basic motor activity” value is listed as “did not modify”. For the same compound, the IC50 at Histamine H2 is 1.56 µM; in data set [2], 3.37 µM; in data set [4], below 0.3 µM. In addition, the nH on Histamine H2 was 1.37; in data set [2], 1.06. In addition, the inhibition at 3 µM at Histamine H2 (3 μM) amounted to 70%. The Ki stood at 1.28 µM on Histamine H2 (read-out: K1), 0.965 µM in data set [2] (read-out: K1) and 0.029 µM in data set [4] (read-out: DAT final Ki). The inhibition at 10 µM in data set [2] (read-out: % INH.) is 81%. The survival result in the data set with ICR mice (acute oral up to 100 mg/kg) is given as “all animals survived”. Also, the tolerability result in the data set with ICR mice (acute oral up to 100 mg/kg) is “well tolerated”. The “stimulation behavior (number of rearings)” value with ICR mice (24 and 48hr after administration) is listed as “significant increase”; in the data set on ICR mice (after 72 hr), “normalization”. For the same compound, the anti-anxiety effect entry in the data set on BALB/c mice [3] is given as “significant anti-anxiety effect”. The compound further yielded an inhibition at 0.03 µM in data set [4] (0.03 μM) of 51%.
